Key:
IL-1 = IL-1 assay: supernatants of peritoneal exudate cells of orally treated mice, tested on thymocytes; format: in vivo, C57BI/6 mice; conditions: oral dose 25, 100 or 200 mg/Kg (not stated which), PEC collected four days later, 3H-TdR in thymocytes; for IL-1 ASSAY + LPS: with Lipopolysaccharide (10 μg/ml); for IL-1 ASSAY - LPS: without Lipopolysaccharide
Experimental: Groups of C57BI/6 mice were treated orally with immunomodulator at doses of 25, 100 or 200 mg/Kg. Four days later peritoneal exudate cells (PEC) were collected and 1 x 10^5 cells were plated in RPMI-1640 medium containing 5% fetal calf serum (FCS). After 2 hours incubation at 37°C the non-adherent cells were washed off and the adherent cells were incubated for 24 hours in RPMI medium with 5% FCS with or without Lipopolysaccharide (10 u.g/ml). The following day the supernatants were collected and assayed for IL-1 on thymocytes. The cultures were incubated for 3 days and then pulsed with ^3H-TdR using 0.5 µCi/well. The cells were harvested and the number of counts per minute (CPM) was determined using a Beckman scintillation counter.

IL-2 = IL-2 assay: supernatants of Con A stimulated lymphocytes of treated mice, proliferation of indicator cells; format: in vivo; conditions: mice treated with 100 mg/kg, Con A for 2 days; for IL-2 ASSAY CPM, % Supernatants Tested 5: 5 % supernatant; for IL-2 ASSAY CPM, % Supernatants Tested 10: 10 % supernatant; for IL-2 ASSAY CPM, % Supernatants Tested 20: 20 % supernatant
Experimental: Spleens were removed from mice and single-cell suspensions were prepared by teasing the spleens apart and rinsing through No. 40 and No. 80 stainless steel mesh screens. Erythrocytes were lysed by a 3- minute exposure to a 0.83% Tris-ammonium chloride solution. Cells were washed 3 times with HBSS and finally suspended in complete RPMI 1640 culture medium consisting of 5% FCS, 2mM L-glutamine, 5 x 10^-5M 2-mercaptoethanol, 10mM HEPES, 100 U/ml of penicillin, and 100 µg/ml of streptomycin. Cells were counted in a hemocytometer and the viability of test cells was always greater than 98% as judged by trypan blue dye exclusion.
IL-2 was made by stimulating 10^7 B6 splenocytes with 1 µg Con A in 1 ml medium. Supernatants were harvested 2 days later and residual Con A was removed by Sephadex G-50 absorption or a-methyl mannoside inactivation. IL-2 activity was tested in the thymocyte proliferation assay described above. Additionally, test samples were added to cultures of lymphoblasts prepared by a three-day Con A stimulation or to IL-2 dependent CT11-2 cells. The proliferation of these indicator cells was measured 24 hours later by ^3HTdR incorporation.
Lymphocytes prepared from normal mice or mice treated with 100 mg/kg of test compound were stimulated with Con A for 2 days. Culture supernatants were harvested and tested for putative IL-2 activity in 3 proliferation assays using thymocytes, lymphoblasts and CTLL-2 cells as indicators. Although supernatants from normal lymphocytes supported the growth of all indicator cells, lymphocytes from treated animals apparently produced more IL-2 as indicated by a greater degree of cell proliferation in all three test systems.

SRBC = test: Anti-SRBC antibody assay (antibody forming cells, plaques); format: in vivo, mice; conditions: oral, day 0, 200 or 600 mg/kg, SRBC IP day +4; for Production of Anti-SRBC Antibody, CPM Test No. 1: control 1,260; for Production of Anti-SRBC Antibody, CPM Test No. 2: control 830
Experimental: Compounds were given orally on day 0 at doses of 200 or 600 mg/kg. 0.1 ml of a 10% suspension of sheep RBC (Red Blood Cell) was given IP on day +4. Ten days later splenocytes were obtained from these mice and either 4 x 10^6 ot 2 x 10^6 splenocytes in 50 µl were mixed with 50 µl of a 15% suspension of SRBC containing guinea pig complement (1:4 dilution). 100 ul of this mixture was placed onto a slide culture and incubated for 30 to 45 minutes at 37°C. The number of antibody forming cells was determined by counting the number of visible plaques formed.

[1] = tested on: colony stimulating factor (CSF); test: Colony stimulating factor production: mouse sera tested on normal bone marrow cells; format: in vivo, mice; conditions: 10% test serum on normal marrow cells, 3 days, 3HTdR; for Production of Colony Stimulating Factor, CPM Test No. 2: control 3,118; for Production of Colony Stimulating Factor, CPM Test No. 1: control 548
Experimental: Mouse femurs were removed and the marrow cells collected by aspiration through a 23 gauge needle and dispensed into 5 ml of RPMI 1640 culture medium. Aliquots were diluted with a 2% solution of acetic acid containing 0.2% crystal violet and the number of nucleated cells per femur was determined by direct count in a hemocytometer.
Mouse sera were assayed for colony stimulating factor (CSF) in cultures of normal bone marrow cells. CSF was tested in a system in which 5 x 10" normal marrow cells were incubated with 10% test samples in each well of 96-well culture plates for 3 days. Proliferation of these cells was determined by ^3HTdR incorporation.

P815 tumor cells = test: Macrophage mediated tumor cytostasis (activation of tumoricidal macrophages in compound-treated mice); format: in vivo; conditions: macrophages from compound-treated mice vs normal control macrophages; 3HTdR incorporation into P815 cells; single oral dose, day 4
Source text: The test compounds apparently were able to activate these cells in vivo to inhibit the growth of tumor cells in cultures. These "activated" macrophages were detectable in peritoneal exudates of treated mice on day 4 after receiving a single oral dose of the test compound. (Table I). […] (Tables II and III). […] (Table V). Mice treated with the test compounds also respond better to foreign antigens such as sheep red blood cells (SRBC) as shown by their ability to produce higher levels of antibody to this foreign protein. (Table IV). […]
P815 tumor cells obtained from D2 mice were washed twice with HBSS and suspended in 10% FCS- complete medium. Five x 10^3 P815 cells were added to culture wells containing B6 macrophages and the E:T ratios were determined by the numbers of PE cells added initially to each well. […] The amount of ^3HTdR incorporated into target cells was determined in a liquid scintillation counter. The mean cpm were obtained from triplicate cultures with results being presented as percent cytostasis calculated by the fol lowing formula: % cytostasis = (A-B)/A x 100 where A = cpm of cultures containing normal control macrophages; and B = cpm of cultures containing experimental macrophages obtained from compound-treated mice.

| SMILES | IL-1 ASSAY + LPS (IL-1) | IL-1 ASSAY - LPS (IL-1) | IL-2 ASSAY CPM, % Supernatants Tested 5 (IL-2) | IL-2 ASSAY CPM, % Supernatants Tested 10 (IL-2) | IL-2 ASSAY CPM, % Supernatants Tested 20 (IL-2) | Production of Anti-SRBC Antibody, CPM Test No. 1 (SRBC) | Production of Colony Stimulating Factor, CPM Test No. 2 [1] | % Cytostasis (P815 tumor cells) | Production of Anti-SRBC Antibody, CPM Test No. 2 (SRBC) | Production of Colony Stimulating Factor, CPM Test No. 1 [1] |
| --- | --- | --- | --- | --- | --- | --- | --- | --- | --- | --- |
| CCC(=Nc1ccc2c(c1)S(=O)(=O)c1cc(N=C(CC)N(C)C)ccc1-2)N(C)C [N , N"-3,7-Dibenzothiophenediylbis[N,N-dimethylpropanimidamide] S,S-dioxide] | 56,015 CPM | 31,260 CPM | 3,238 CPM | 9,050 CPM | 14,568 CPM | 1,437 CPM | 6,650 CPM |  |  |  |
| CCC(=Nc1ccc2c(c1)S(=O)(=O)c1cc(F)ccc1-2)N(C)C [N'-(7-Fluoro-3-dibenzothienyl)N,N-dimethylpropanimidamide S,S-dioxide] |  |  |  |  |  |  |  | 77.4% | 1,474 CPM | 1,353 CPM |
| CCC(=Nc1ccc2c(c1)-c1cc(N=C(CC)N(C)C)ccc1S2(=O)=O)N(C)C [N,N'"-2,8-Dibenzothiophenediyibis[N,N-dimethyipropanimidamide] S,S-dioxide] | 44,983 CPM | 52,160 CPM | 2,766 CPM | 6,457 CPM | 11,288 CPM | 1,029 CPM | 6,513 CPM |  |  |  |
| CC(=O)Nc1ccc2c(c1)S(=O)(=O)c1cc(F)ccc1-2 [N-(7-Fluoro-3-dibenzothienyl)acetamide S,S-dioxide] | 36,320 CPM | 50,677 CPM | 2,849 CPM | 5,653 CPM | 10,982 CPM |  |  | 13.9% | 1,469 CPM | 976 CPM |
